Experimental data published in patent US20250268826A1, “IONIZABLE LIPIDOID COMPOSITIONS AND THERAPEUTIC USES THEREOF” (Flagship Pioneering Innovations VII, LLC, priority 2023, published 2025).

Legend:
[1] = Apparent pKa of the LNPs by fluorescence based TNS assay; conditions: for Apparent pKa: Vaccine Study 2, LNP with spike mRNA, 50/10/38.5/1.5 mol % ionizable lipid:helper lipid:cholesterol:DMG-PEG2k, N-to-P ratio 6
[2] = LNP Zeta potential measured using a Zetasizer (Malvern); format: physicochemical; conditions: for Zeta potential: hEPO mRNA, N:P 6; for Zeta (mV): Vaccine Study 2, LNP with spike mRNA, 50/10/38.5/1.5 mol % ionizable lipid:helper lipid:cholesterol:DMG-PEG2k, N-to-P ratio 6; for Zeta potential (mV): LNP with hEPO mRNA, N:P ratio 6
[3] = Encapsulation efficiency (EE %) by fluorescence based Ribogreen assay; format: physicochemical
[4] = LNP size and polydispersity index (PDI) by dynamic light scattering (DLS); format: physicochemical
[5] = Table 8, LNP 50:10:38.5:1.5 mol %
[6] = Table 8, LNP 50:10:38.5:1.5 mol %, hEPO mRNA, N:P 6
[7] = Table 8, LNP Lipid:DSPC:Cholesterol:DMG-PEG2k 50:10:38.5:1.5 mol %, hEPO mRNA, N:P 6
[8] = Vaccine Study 2, LNP with spike mRNA, 50/10/38.5/1.5 mol % ionizable lipid:helper lipid:cholesterol:DMG-PEG2k, N-to-P ratio 6
[9] = Table 11, Lipid:DSPC:Cholesterol:DMG-PEG2k 50:10:38.5:1.5 mol % (ALC-0315: 46.3:9.4:42.7:1.6), HEPES/sodium chloride/sucrose buffer, stored at −80C
[10] = Table 11, LNP with hEPO mRNA, Lipid:DSPC:Cholesterol:DMG-PEG2k 50:10:38.5:1.5 mol % (ALC-0315: 46.3:9.4:42.7:1.6), N:P ratio 6, HEPES/sodium chloride/sucrose buffer, stored at −80C
[11] = Example 19 Study 1, LNP with SARS-CoV-2 spike mRNA, N:P 6, standard mol. ratios unless noted "opt"
[12] = Table 1, LNP lipid:DSPC:Cholesterol:DMG-PEG2k 50:10:38.5:1.5 mol %, hEPO mRNA, N:P 6
[13] = Table 10, LNP with hEPO mRNA, Lipid:DSPC:Cholesterol:DMG-PEG2k 50:10:38.5:1.5 mol %, N:P ratio 6, DLS

Q: What does the source list for `CCCCCCCC(CCCCCCC)C(=O)OCCN(CCOC(=O)C(CCCCCCC)CCCCCCC)C(=O)CCCN(C)C` [Compound 932]?
A: pKa ([1]; Table 8, apparent pKa of LNP 50:10:38.5:1.5 mol %, hEPO mRNA, N:P 6): 6.92; Zeta potential [2, 5]: −9.4 mV; Encapsulation Efficiency % [3, 6]: 99.9%; PDI [4, 6]: 0.155; Size [4, 7]: 123.7 nm

Q: Which results are given for `CCCCCCCCC(CCCCCC)C(=O)OCCN(CCOC(=O)C(CCCCCC)CCCCCCCC)C(=O)CCCN(CCC)CCC.Cl` (stereo not shown) [Compound 981]?
A: Apparent pKa [1]: 7.3; Zeta (mV) [2]: −8.8 mV; EE (%) [3, 8]: 98.3%; PDI [4, 8]: 0.054; Size (nm) [4, 8]: 84.3 nm

Q: For `CCCCCCCCC(CCCCCC)C(=O)OCCN(CCOC(=O)C(CCCCCC)CCCCCCCC)C(=O)C(C)CCN(CC)CC.Cl` (stereo not shown) [Compound 987g], which “Zeta potential (mV)” value [2, 9] is on record?
A: −3.5 mV

Q: And the “Encapsulation Efficiency %” value [3, 10]?
A: 95.4%

Q: What about the PDI [4, 10] of the same molecule?
A: 0.097

Q: What about the “Size (nm)” value [4, 10] of the same molecule?
A: 70.5 nm

Q: For `CCCCCCCCC(CCCCCC)C(=O)OCCN(CCOC(=O)C(CCCCCC)CCCCCCCC)C(=O)C(C)CCNCCC.Cl` (stereo not shown) [Compound 987h], which “Zeta potential (mV)” value [2, 9] is on record?
A: 0.0 mV

Q: What about the “Encapsulation Efficiency %” value [3, 10] of the same molecule?
A: 99.4%

Q: And the PDI [4, 10]?
A: 0.099

Q: What about the “Size (nm)” value [4, 10] of the same molecule?
A: 69.1 nm

Q: What does the source list for `CCCCCCCCC(CCCCCC)C(=O)OCCN(CCOC(=O)C(CCCCCC)CCCCCCCC)C(=O)C(C)CCN(C)CCC.Cl` (stereo not shown) [Compound 987i]?
A: Zeta potential (mV) [2, 9]: −4.1 mV; Encapsulation Efficiency % [3, 10]: 94.9%; PDI [4, 10]: 0.059; Size (nm) [4, 10]: 71.7 nm

Q: What does the source list for `CCCCCCCCC(CCCCCC)C(=O)OCCN(CCOC(=O)C(CCCCCC)CCCCCCCC)C(=O)C(C)CCN(CC)CCC.Cl` (stereo not shown) [Compound 987j]?
A: Zeta potential (mV) [2, 9]: −4.4 mV; Encapsulation Efficiency % [3, 10]: 95.7%; PDI [4, 10]: 0.101; Size (nm) [4, 10]: 76.6 nm

Q: For `CCCCCCCCC(CCCCCC)C(=O)OCCN(CCOC(=O)C(CCCCCC)CCCCCCCC)C(=O)C(C)CCN(CCC)CCC.Cl` (stereo not shown) [Compound 987k], which “Zeta potential (mV)” value [2, 9] is on record?
A: −3.4 mV

Q: What about the “Encapsulation Efficiency %” value [3, 10] of the same molecule?
A: 87.2%

Q: And the PDI [4, 10]?
A: 0.045

Q: And the “Size (nm)” value [4, 10]?
A: 76.7 nm

Q: Which “Zeta potential (mV)” value [2, 9] does the source give for `CCCCCCCCC(CCCCCC)C(=O)OCCN(CCOC(=O)C(CCCCCC)CCCCCCCC)C(=O)C(C)CCN1CCCC1.Cl` (stereo not shown) [Compound 987l] here?
A: −2.9 mV

Q: What about the “Encapsulation Efficiency %” value [3, 10] of the same molecule?
A: 95.9%

Q: And the PDI [4, 10]?
A: 0.051

Q: What about the “Size (nm)” value [4, 10] of the same molecule?
A: 76.4 nm

Q: For `CCCCCCCCC(CCCCCC)C(=O)OCCN(CCOC(=O)C(CCCCCC)CCCCCCCC)C(=O)C(C)CCN1CCCCC1.Cl` (stereo not shown) [Compound 987m], which “Zeta potential (mV)” value [2, 9] is on record?
A: −5.1 mV

Q: What about the “Encapsulation Efficiency %” value [3, 10] of the same molecule?
A: 94.9%

Q: What about the PDI [4, 10] of the same molecule?
A: 0.076

Q: And the “Size (nm)” value [4, 10]?
A: 73.7 nm

Q: Which “Zeta potential (mV)” value [2, 9] does the source give for `CCCCCCCCC(CCCCCC)C(=O)OCCN(CCOC(=O)C(CCCCCC)CCCCCCCC)C(=O)C(C)CCN1CCOCC1.Cl` (stereo not shown) [Compound 987n] here?
A: −3.8 mV

Q: And the “Encapsulation Efficiency %” value [3, 10]?
A: 77.8%

Q: And the PDI [4, 10]?
A: 0.107

Q: And the “Size (nm)” value [4, 10]?
A: 65.7 nm

Q: For `CCCCCCCCC(CCCCCC)C(=O)OCCN(CCOC(=O)C(CCCCCC)CCCCCCCC)C(=O)C(C)CCN(CCCC)CCCC.Cl` (stereo not shown) [Compound 987o], which “Zeta potential (mV)” value [2, 9] is on record?
A: −4.1 mV

Q: What about the “Encapsulation Efficiency %” value [3, 10] of the same molecule?
A: 90.2%

Q: And the PDI [4, 10]?
A: 0.121

Q: What about the “Size (nm)” value [4, 10] of the same molecule?
A: 57.4 nm

Q: With `CCCCCCCCC(CCCCCC)C(=O)OCCN(CCOC(=O)C(CCCCCC)CCCCCCCC)C(=O)C(C)CCN(C)CCO.Cl` (stereo not shown) [Compound 987p] as the molecule, how does the “Zeta potential (mV)” value [2, 9] read?
A: −1.5 mV

Q: And the “Encapsulation Efficiency %” value [3, 10]?
A: 99.2%

Q: And the PDI [4, 10]?
A: 0.114

Q: What about the “Size (nm)” value [4, 10] of the same molecule?
A: 74.2 nm

Q: With `CCCCC/C=C\C/C=C\CCCCCCCCC(CCCCCCCC/C=C\C/C=C\CCCCC)OC(=O)CCCN(C)C` [Dlin-MC3-DMA, dilinoleylmethyl-4-dimethylaminobutyrate, reference compound] as the molecule, how does the “Apparent pKa” value [1] read?
A: 6.7

Q: What does the source list for `CCCCCCCCCCCOC(=O)CCCCCN(CCO)CCCCCCCC(=O)OC(CCCCCCCC)CCCCCCCC` [SM-102, reference compound]?
A: Apparent pKa [1]: 7.2; Zeta potential ([2]; Table 1, LNP lipid:DSPC:Cholesterol:DMG-PEG2k 50:10:38.5:1.5 mol %): −3.729 mV; Zeta potential ([2]; Table 7, LNP 50:10:38.5:1.5 mol %, helper lipid DSPC): −17.15 mV; Zeta potential [2, 5]: −9.7 mV; Zeta potential (mV) ([2]; Table 10, Lipid:DSPC:Cholesterol:DMG-PEG2k 50:10:38.5:1.5 mol %): −5.9 mV; Zeta potential (mV) [2, 9]: −1.0 mV; Zeta (mV) [2]: −4.1 mV; EE (%) [3, 11]: 91.5%; EE (%) [3, 8]: 97.8%; PDI [4, 11]: 0.065; Size [4, 11]: 94.8 nm; PDI [4, 12]: 0.074; Size [4, 12]: 81.8 nm; PDI ([4]; Table 7, LNP 50:10:38.5:1.5 mol %, helper lipid DSPC, hEPO mRNA, N:P 6): 0.041; Size ([4]; Table 7, LNP ionizable lipid:Helper Lipid:Cholesterol:DMG-PEG2k 50:10:38.5:1.5 mol %, helper lipid DSPC, hEPO mRNA, N:P 6): 75.3 nm; PDI [4, 6]: 0.042; Size [4, 7]: 80.3 nm; PDI ([4]; Table 9, LNP 50:10:38.5:1.5 mol %, hEPO mRNA, N:P 6): 0.098; Size ([4]; Table 9, LNP Lipid:DSPC:Cholesterol:DMG-PEG2k 50:10:38.5:1.5 mol %, hEPO mRNA, N:P 6): 80.7 nm; PDI [4, 13]: 0.272; Size (nm) [4, 13]: 56.5 nm; PDI [4, 10]: 0.087; Size (nm) [4, 10]: 69.6 nm; PDI [4, 8]: 0.127; Size (nm) [4, 8]: 88.4 nm
